Experimental data from PMC7933130 (Nature, 2021).

Molecular target: NaCT (Homo sapiens, UniProt Q86YT5)
Test: cryo-EM structure at […] Å
Format: binding

NaCT, sequence (Q86YT5 whole entry): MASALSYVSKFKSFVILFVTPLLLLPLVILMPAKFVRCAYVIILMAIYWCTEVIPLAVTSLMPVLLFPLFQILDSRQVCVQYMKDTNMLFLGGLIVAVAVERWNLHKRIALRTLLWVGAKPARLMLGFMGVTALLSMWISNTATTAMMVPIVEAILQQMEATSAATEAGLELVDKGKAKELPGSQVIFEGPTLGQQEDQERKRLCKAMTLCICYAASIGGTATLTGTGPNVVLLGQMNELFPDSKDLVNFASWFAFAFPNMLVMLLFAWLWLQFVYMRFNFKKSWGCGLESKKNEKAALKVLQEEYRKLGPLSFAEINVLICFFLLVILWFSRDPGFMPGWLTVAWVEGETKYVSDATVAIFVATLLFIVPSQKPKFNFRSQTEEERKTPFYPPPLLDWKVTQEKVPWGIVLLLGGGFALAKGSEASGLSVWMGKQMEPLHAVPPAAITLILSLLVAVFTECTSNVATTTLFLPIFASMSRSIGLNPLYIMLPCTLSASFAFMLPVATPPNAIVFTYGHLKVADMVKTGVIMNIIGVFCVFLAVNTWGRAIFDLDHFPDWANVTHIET

Compound: O=C(O)CC(O)(CC(=O)O)C(=O)O [citrate]
- Kd: 148 ± 28 µM
